These results are taken from US9766197B2, “Methods for generating pH/ionic concentration gradient near electrode surfaces for modulating biomolecular interactions, and bubble detection using electrodes” (Robert Bosch GmbH, priority 2014, dated 2017).

Structures are written as SMILES.

Data set [1] in a line: Electrochemical modulation of pH at ITO working electrode monitored by GFP fluorescence intensity. Format: physicochemical. An excerpt: After current was turned off, the pH recovered to neutral value within 50 seconds.
Electrode material used: The electrode material was indium tin oxide. The fluorescent protein used is GFP immobilized on a glass substrate which includes an array of electrodes. The GFP is applied as spots, each spot covers an area that overlaps with one electrode and an area that is not overlapping with an electrode.
The pH change at the surface of ITO working electrode is generated via current-driven oxidation of a redox active molecule, 2-methyl-1,4-dihydroquinone, in diluted phosphate buffer (pH=7.4) containing 0.1M Na2SO4. […] FIG. 10 is used as calibration curve to assess the pH values.

Data set [2] can be described thus: Electro-oxidation of ascorbic acid at indium tin oxide electrode (cyclic voltammetry). Format: physicochemical. The following applies: Indium tin oxide vs Ag/AgCl reference electrode. The text has this:
FIG. 7B: Cyclic voltammetric study of the oxidation of Ascorbic acid test in ITO electrodes.
(§1) Electrode material used: The electrode material was indium tin oxide. This is a semiconducting electrode surface with very large potential window in an aqueous solution.
Oxidation of ascorbic acid at the electrode surfaces produced H^+ ions and changed the electrode surface pH to a more acidic state: AH2→A+2H^++2e^−, where AH2 is ascorbic acid ([…]) (as shown in FIG. 5). The electrode potential at which it oxidizes was less than 0.5V for Indium tin oxide material vs Ag/AgCl reference electrode (as shown in FIG. 7). This potential was less than the voltages needed for the oxygen evolution reaction in aqueous solution. The ascorbic acid also acted as a sacrificial species to prevent electrochemical degradation of the surface chemistry.

Data set [3] can be described thus: Electro-reduction of benzoquinone into hydroquinone to produce OH- ions. In kind it is physicochemical.
From the text: as §1
Reduction of benzoquinone (C6H4O2) into Hydroquinone (C6H6O2) can produce OH^− ions at −0.1V: BQ+2e^−+2H2O→HQ+2OH^− This reduction reaction increased the pH at the electrode interface.

Data set [4] concerns the target Green Fluorescent Protein (GFP) (Aequorea victoria, UniProt P42212). The data set is described as follows: Fluorescence intensity of GFP after incubation with benzoquinones (protein stability). Format: biochemical. The following applies: 0.5 mM benzoquinone, phosphate buffered saline, 30 min. The text has this:
Para-benzoquinones and ortho-benzoquinones (compounds 2, 4, 6, and 9 in FIG. 31) are susceptible to nucleophilic attack at the double bond of the ring (positions 2, 3, 5 and 6 in structure 2 of FIG. 31, positions 3, 4, 5 and 6 in structure 4 of FIG. 31, and positions 2 and 3 in structure 6 of FIG. 31). Introducing substituents at some or all of those positions can mitigate the problem of nucleophilic attack. For example, 1,4-benzoquinone (structure 2 in FIG. 31, where R1, R2, R3 and R4 are H) undergoes Michael addition reaction with amino groups of proteins (Loomis et al., Phytochemistry, 5, 423, (1966) and U.S. Pat. No. 6,753,312 B2). […] Fluorescence intensity of Green Fluorescent Protein (GFP) was measured after incubation with three different benzoquinones in phosphate buffered saline for 30 min (concentration of benzoquinones was 0.5 mM). The difference in fluorescence intensity indicates the varied effect that the different substitutions in benzoquinones have on the stability of GFP. Fluorescence intensity of GFP is indicative of its structural integrity. Losses in fluorescence intensity usually indicate loss of its tertiary structure (protein denaturation) (Yin D. X., Zhu L., Schimke R. T. Anal. Biochem. 1996, 235:195-201).

In the case of `Cc1cc(O)ccc1O` [2-methyl-1,4-dihydroquinone], in data set [1] (50 microamps for 30 second, diluted phosphate buffer pH 7.4, 0.1M Na2SO4, ITO working electrode), the “solution pH after current-driven oxidation” value is 5.5. Further, the “time for pH to recover to neutral value after current was turned off” value in data set [1] (diluted phosphate buffer pH 7.4, 0.1M Na2SO4) was at most 50 seconds.

`O=C1O[C@H]([C@@H](O)CO)C(O)=C1O` [ascorbic acid]: the “electrode potential at which it oxidizes” value in data set [2] is given as “less than 0.5 V”.

On to `O=C1C=CC(=O)C=C1` [unsubstituted benzoquinone, 1,4-benzoquinone], for which, in data set [3], the “potential of reduction producing OH- ions” value is given as −0.1 V. Moreover, the “loss in GFP fluorescence intensity after incubation” value in data set [4] was determined as 25%.
